Measured values: patent US9096643B2, “Cell-protective peptides and uses thereof” (priority 2010, dated 2015)
“And” between values parts separate entries of the source, which are not always exact repeats. Identical values can stand only once. No end group written: not given here.

What was measured:
[1] = system: neonatal rat CMs (heart cells); experiment: Live/dead (CFDA/PI) staining of heart cells on coated surfaces; type: cell-based, rat (Sprague-Dawley); settings: one and three days of incubation, FIG. 2
Procedure: The day before cells were ready to be seeded, the surfaces in the 12-well plates were sterilized by germicidal UV illumination overnight. The PBS surrounding the surfaces was then aspirated off and 100,000 live cells were pipetted onto each surface in 100 μL of culture media. These surfaces were left in the incubator for 20 to 30 min to allow the cells to begin to adhere, and then supplemented with 1 mL of warm CM media. The cells were cultivated for 8 days, with 100% culture media change every 2-3 days. The initial seeding density of heart cells on peptide-chitosan coated surfaces was 88 cells/mm^2. […] Each type of surface was created in triplicate.
Live dead staining was performed using 5-carboxyfluorescein diacetate acetoxymethly ester (CFDA, Invitrogen), which stains live cells green, and with propidium iodide (PI, Invitrogen), which stains dead cells red, according to the manufacturer's instruction. The samples were incubated in 10 μM of CFDA and 75 μL/mL of PI in PBS for 45 min at 37° C. Three different surfaces were analyzed for each type of sample (N=3) and a total of five images were taken for each surface to get a full representation of the viability of the cells on a surface. In order to quantify the viability, the numbers of live and dead cells were counted separately using the cell counter plug-in on ImageJ.

[2] = system: neonatal cardiomyocytes encapsulated in chitosan hydrogels; experiment: Functional testing by electrical field stimulation (ET, MCR) of encapsulated cardiomyocytes; type: cell-based, rat
Source text: The electrical function of in vitro samples of neonatal cardiomyocytes encapsulated in chitosan hydrogels for 6 d was established by measuring excitation threshold (ET), the minimum voltage required to pace the encapsulated cells simultaneously, and maximum capture rate (MCR) as previously described, (Radisic, Park et al. 2004), the contents of which are incorporated by reference. The MCR is the maximum stimulation rate at which the encapsulated cardiomyocytes can be induced to beat simultaneously, the encapsulated samples were placed between a pair of carbon electrodes immersed in warm Tyrode solution (Sigma, pH 7.4). The ET was measured by stimulating the samples with square pulses of 2 ms width at a frequency of 1 Hz and increasing the output voltage of the stimulator until ˜90% of the cells in the field-of-view were beating synchronously with the stimulator output. The MCR was measured by setting the output at 15 V, and increasing the frequency until most of the cells in the sample were no longer synchronously beating with the driving signal. All measurements were taken using bright field microscopy. The samples were placed in an environmental chamber at 37° C. for the measurements (N=3/group).

human iPS cells BJ1D = experiment: iPS cell dose-response, CFDA-Live/PI-Dead live cell count; type: cell-based; settings: 50 μM soluble peptide, passage 5, vs PBS, p=0.028, FIG. 10
Procedure: The human iPS cells (BJ1D and 0901B) were obtained from the Ontario iPSC Facility and used following the hiPS cell research guidelines of the University of Toronto as described by Hotta et al. Nat. Protoc. 4, 1828-1844 (2009)), unless specified otherwise. Cells were cultured on a feeder layer of MEF cells (Mount Sinai Hospital Toronto, inactivated with 10 μg/ml mitomycin C and seeded at 1.8×10^5 per 3.5 cm dish). For single cell cultures, hiPS cell colonies were dissociated in 0.25% Trypsin-EDTA (Invitrogen) for 5 min, followed by trituration with a pipette. To ensure a single-cell suspension, the dissociated cells were passed through a 40 μm cell strainer (BD Falcon) and seeded onto MEF plates at 10 cells/ml, 10 cm plates. Cells were allowed to grow for 7 days and the total number of colonies was counted. […] Cells were analyzed after 5 passages in continuous treatment with 50 μM QHREDGS, 50 μM DGQESHR, or PBS, unless specified otherwise.
Human iPS cells were treated for 5 passages and stained for CFDA-Live/PI-Dead as described in Rask et al. J. Biomed. […] Live cells were counted using the cell counter plug in for ImageJ Immunohistochemistry was performed as described above (Rask et al., ibid). […]
To determine the optimal concentration of QHREDGS for iPSC expansion, a dose-response experiment was performed. […] Live cells were counted using the cell counter plug in for ImageJ.

Row | Substance | cell viability (live/dead) [1] | ET (excitation threshold) ([2]; after six days of cultivation) | MCR (maximum capture rate) ([2]; after six days of cultivation) [pps] | cardiomyocyte contraction under electrical field stimulation ([2]; end of cultivation period) | number of viable human iPS cells (human iPS cells BJ1D)
1 | Az-chitosan-QHREDGS: QHREDGS peptide covalently conjugated to Az-chitosan by EDC chemistry (also: covalently conjugated to Az-chitosan by EDC chemistry, site not given here) | significantly greater cell viability | 7.0 ± 0.4; V and 9.2 ± 0.6 V | 4.3 ± 0.1 | beat synchronously | 
2 | QHREDGS (angiopoietin 1 peptide) |  |  |  |  | significant increase
